Measured values taken from US9359452B2, “Isolation and characterisation of heparan sulphates and their use in pharmaceutical compositions, methods of treatment and stem cell culture media suitable for conditions associated with bone repair” (Agency for Science, Technology and Research, priority 2009, dated 2016).
“Also recorded” adds a separate entry of the source.

Assays:
[1] = system: Bovine aortic smooth muscle cells (BASMC); settings: literature (Yang et al); cited from earlier work
[2] = system: human mesenchymal stem cells (hMSC); test: hMSC proliferation, viable cell count in osteogenic medium; format: cell-based; settings: data not shown
Procedure: (§1) FIG. 5. Effect of male and female liver HS on the growth of hMSC in maintenance and osteogenic medium. Cells were cultured for 7 days in normal maintenance medium in the presence of different concentrations (12.5 μg/ml or 1.25 μg/ml or 625 ng/ml or 312 ng/ml or 156 ng/ml) of male liver HS (A), and female liver HS (B). Cells were cultured for 7 days in osteogenic medium in the presence of different concentrations (12.5 μg/ml or 625 ng/ml or 312 ng/ml) of male liver HS (C), and female liver HS (D). Viable cell counts were determined at day 1, 3, 5 and 7. (E) The importance of FGFR signaling for HS activity was investigated by supplementing serum starved sub confluence cultures with male or female. HS (2.5 μg/ml) or FGF2 (2.5 ng/ml) in the presence or absence of an FGFR1 inhibitor (SU5402 at 20 μM) for 60 min. Total protein was extracted for Western blotting and first probed for activated ERK1/2 expression (pERK1/2). Membranes were then striped and reprobed with anti ERK1/2 antibody. (F) The amount of pERK1/2 protein was determined by densitometry. […]
(§2) Human mesenchymal stem cells (hMSCs) (Cambrex, USA) were plated in maintenance medium consisting of DMEM (1000 mg/L glucose), 10% fetal calf serum (FCS), 2 mM L-glutamine and 100 U/ml penicillin-streptomycin sulfate at 37° C. in a humidified atmosphere with 5% CO2. […] Proliferation of cells was assessed by Guava viacount on 1, 3, 5 and 7 day to determine the total viable cells. Cells were washed in PBS, pelleted with 0.125% trypsin, the trypsin neutralized, the pellet resuspended in 400 μl of PBS with the addition of 4 μl of Flex reagent, incubated for 10 min and cell number and viability determined utilizing the GUAVA Viacount software.
To assess the possibility of structural differences identified between the male and female liver HS to modulate hMSC proliferation, hMSCs were treated with varying concentration of HS and viable cell number was counted over a 7-day culture period in normal maintenance or differentiation (osteogenic) medium.

[3] = system: human mesenchymal stem cells (hMSC); test: hMSC proliferation, viable cell count (GUAVA Viacount) in maintenance medium; format: cell-based; settings: normal growth medium; data not shown
Procedure: as §2, with “CO2. To assess their proliferation, assays were performed to determine cell number utilizing the GUAVA PCA-96 System (GUAVA Technologies) as per the manufacturer's instructions. Briefly, cells were seeded at 3,000 cells/cm^2 in 48-well plates and allowed to adhere overnight.” for “CO2.”
Human mesenchymal stem cells (hMSCs) were plated in maintenance medium consisting of DMEM (1000 mg/L glucose), 10% fetal calf serum (FCS), 2 mM L-glutamine and 100 U/ml penicillin-streptomycin sulfate at 37° C. in a humidified atmosphere with 5% CO2. To assess their proliferation, assays were performed to determine cell number utilizing the GUAVA PCA-96 System (Millipore, USA) as per the manufacturer's instructions.
Briefly, cells were seeded at 3,000 cells/cm^2 in 48-well plates and allowed to adhere overnight. […] Proliferation of cells was assessed on days 1, 3, 5 and 7 to determine total viable cells. Cells were washed in PBS, pelleted with 0.125% trypsin, the trypsin neutralized, the pellet resuspended in 400 μl of PBS with the addition of 4 μl of Flex reagent, incubated for 10 min and cell number and viability determined utilizing the GUAVA Viacount software.

hMSCs = test: hMSC proliferation with or without FGFR1 inhibitor SU5402, 5 days; format: cell-based, human
ERK1/2 = ERK1/2 phosphorylation in serum-starved hMSC (Western blot); format: cell-based, human; settings: SU5402 at 20 μM, 60 min, with male or female HS 2.5 μg/ml
Procedure: as §1
MSCs were seeded in designated media at 5,000/cm^2 in six-well plates and cultured until subconfluent. […] Protein content was determined using a Protein Assay Kit (Bio-Rad) following the manufacturer's instructions. […]

dermatan sulfate
effect on BASMC mineralization [1]: no inhibition; also recorded: no inhibitory activity

6-de-O-sulfated heparin
effect on hMSC proliferation [2]: no effect; also recorded: neither de-N-sulfated, 2-de-O-sulfated nor 6-de-O-sulfated heparin had any effect | hMSC proliferation compared to 10% serum [3]: less effect on proliferation

FGF2
effect on hMSC proliferation (hMSCs; FGF2 2.5 ng/ml): induced proliferation

N-desulfated heparin
effect on BASMC mineralization [1]: no inhibition; also recorded: no inhibitory activity

heparin [highly sulfated heparin]
effect on BASMC mineralization [1]: inhibited

de-N-sulfated heparin
effect on hMSC proliferation [2]: no effect; also recorded: neither de-N-sulfated, 2-de-O-sulfated nor 6-de-O-sulfated heparin had any effect | hMSC proliferation compared to 10% serum [3]: does not increase hMSC proliferation; also recorded: failed to improve hMSC proliferation

2-de-O-sulfated heparin
effect on hMSC proliferation [2]: no effect; also recorded: neither de-N-sulfated, 2-de-O-sulfated nor 6-de-O-sulfated heparin had any effect | hMSC proliferation compared to 10% serum [3]: less effect on proliferation

Cc1c[nH]c(/C=C2\C(=O)Nc3ccccc32)c1CCC(=O)O [SU5402]
effect on liver HS-stimulated ERK1/2 phosphorylation (ERK1/2): blocked | effect on basal growth of hMSCs (hMSCs; SU5402 at 20 μM): inhibitory effect | effect on HS and FGF2 induced proliferation (hMSCs; SU5402 at 20 μM, male HS 2.5 μg/ml or FGF2 2.5 ng/ml): preventing HS and FGF2 induced proliferation
